Laboratory results taken from patent US8895610B1, “Platinum (IV) compounds targeting zinc finger domains” (priority 2007, dated 2014).
“And” between values parts separate entries of the source, which are not always exact repeats. Equal values may be shown once.

What was measured:
FIV Petaluma = assay: p25 antigen evaluation of antiviral activity in MBM cells; type: cell-based, feline; settings: for p25 Viral Antigen (OD), average / p25 Viral Antigen (OD), individual wells: 7 days post infection, K+ = 1.195, K− = 0.08, listed as 4
Protocol: Antiviral activity in MBM was determined by inoculating 200 Tissue Culture Infectious Doses 50% FIV Petaluma (Talbott, 1989) in 100 μL RPMI 1640 medium into quadruplicate wells of 96-well microplates containing 2×10^5 cells in 100 μL medium. The cultures were monitored by measuring FIV p25 capsid protein (Lombardi, 1994) release in the supernatants after 7 days of incubation at 37° C. in 5% CO2 (Table 12). Half the media (without drug) was replaced on days 2 and 6 after infection and initial drug exposure. […] Drugs are identified as: CPA-7 (#1); NAD (#2); cisplatin (#3) and FX101 (#4). […]. […] A minimum of 50% inhibition in vitro is required to offset viral infectivity and replication in vivo.

[1] = Blood brain barrier penetration: CSF platinum by graphite furnace atomic absorption; type: in vivo, cat; settings: final i.v. treatment, both cats
Protocol: Cerebrospinal fluid (CSF) from cats BR and CF of Example 6 were collected under sedation following humane animal practices. CSF (0.5-1 ml) samples were collected within 15 minutes of FX101 peripheral intravenous (IV) injection to examine for drug penetration into the CNS. Importantly, this analysis was conducted upon the final IV drug treatment, which would most likely evidence resistances to CNS uptake as experienced by other CNS-penetrable drugs. Instead, CSF concentrations (analyzed by graphite furnace atomic absorption spectrometry for this inorganic complex as illustrated for cat “BG”) were equivalent to blood serum concentrations of 5 micrograms/mL in both cats, supporting a continuing unimpeded penetration into the vital CNS compartment through the blood brain barrier.

M2 strain of FIV = assay: Second FIV cat study, plasma viremia (five treated, three control cats); type: in vivo, domestic cat; settings: after 6 intravenous doses of 3 mg/kg over four weeks, controls showed active viremia
From the text: Eight specific-pathogen-free domestic female cats infected >2 years with the M2 strain of FIV were used in another study. Cats were housed individually in a climatized animal facility in accordance with standards, had ad libitum access to fresh water and food, and were sedated with Tiletamine/Zolazepam intramuscularly prior to any procedure. The animals were divided into two groups, with five receiving FX101 in 10% DMSO/saline (treated) and three receiving only 10% DMSO/saline (control). Prior to initiation of the treatment and at scheduled times, samples were collected for hematological and virological analyses. The cats received 6 intravenous doses of 3 mg/kg FX101 over four weeks. Cats were matched by birthdates and infection dates with similar viral blood plasma viremia levels at the onset of the study. […] Current antretrovirals are required on a daily basis; the efficacy of six doses of treatment over four weeks supports a distinct mechanism from the nucleotide/non-nucleotide reverse transcriptase, protease and infectivity inhibitors. Efficacy extends across diverse strains of FIV, in agreement with alterations by platinum(IV) compounds to the zinc-binding nucleocapsid domain being therapeutically targeted. It is anticipated that cotherapies targeting multiple mechanisms may eventually provide viral clearance for an infected host.

[2] = test system: peripheral CD4+ and CD8+ T-lymphocytes; assay: Circulating CD4+ and CD8+ T-lymphocytes by flow cytometry; type: in vivo, domestic cat
Protocol: Numbers of peripheral CD4^+ and CD8^+ T-lymphocytes in the blood were determined by labeling with mouse monoclonal antibodies to feline CD4^+ (FE1.7B12) and feline CD8^+ (FE1.10E9), obtained from Peter F. Moore, University of California, Davis, Calif. Bound primary antibodies were detected using FITC-conjugated anti-mouse IgG1 (Space-Serotec, Milan, Italy), and the samples were analyzed on a FACScan flow cytometer (Becton Dickinson, San Jose, Calif.). Both a negative (no drug) and positive (integrase inhibitor cocktail) control are included with data from two HK inhibitor-tested felines.

[3] = Clinical observations, clinical chemistry, CBC and urinalysis in FIV cat studies; type: in vivo; settings: 9 intravenous doses of 3 mg/kg over 4.5 weeks; two FIV-infected cats
From the text: Currently available antiretrovirals require daily dosing, often in combination therapy. Two 12^+-year old specific-pathogen-free domestic female cats infected >5 years with the Petaluma strain of FIV were used in this study. The animals were housed individually in a climatized animal facility in accordance with standards, had ad libitum access to fresh water and food, and were sedated with Tiletamine/Zolazepam intramuscularly prior to any procedure. The cats weighed from 3-5 kg each. Three weeks before initiation of the treatment and at scheduled times, samples were collected for hematological and virological analyses. The cats received 9 intravenous doses of 3 mg/kg FX101 over 4.5 weeks (2× weekly).

F2 zinc finger peptide = F2 zinc finger peptide (Human immunodeficiency virus type 1 group M subtype B, UniProt P12493)
Protocol: Solutions of F2 zinc finger peptide in phosphate-buffered saline without calcium or magnesium (see Example 1) alone or mixed with zinc and/or platinum compounds were analyzed by MALDI-TOF (matrix-assisted laser desorption/time-of-flight) MS (mass spectrometry). Briefly, the samples comprised 1:1 ratios of F2 peptide with metals in phosphate buffered saline without calcium or magnesium at 2×10 moles/liter concentrations. Additionally, samples containing both Zn(II) and Pt(IV) metals with F2 peptide in a 1:1:1 ratio were analyzed, as were various Pt(IV) and Pt(II) compounds mixed with F2 peptide solutions. Samples were considered to be at equilibrium after 12 hours stored at 4° C. Volumes of 0.5-1.0 microliters for each sample were individually spotted with or without dilution at 1:10, 1:100 or 1:1000 (˜165-193 pmole/microliter) in DHB matrix (Laser Biolabs, France). […]
The main group of peaks include at least two overlapping peaks characteristic of cysteines (see note above) with neutral mass within 2451.82-2457.82 Da, singly charged ions at m/z 2452.82-2458.82 Da. […] While MALDI-TOF MS is not quantitative, relative peak heights are proportional to relative amounts of species.

[NH2][Pt]([NH2])([Cl])([Cl])([Cl])[N+](=O)[O-] [FX101, nitrotrichlorodiamminoPt(IV)]
inhibition (elimination of all measures of virus) by day 7 (FIV Petaluma; 7 days, concentrations used 5 and 20 μM, listed as #4): 100%
p25 Viral Antigen (OD), average (FIV Petaluma; conc 5 μM): 0 OD
p25 Viral Antigen (OD), individual wells (FIV Petaluma; conc 5 μM): 0 OD
p25 Viral Antigen (OD), average (FIV Petaluma; conc 20 μM): 0 OD
p25 Viral Antigen (OD), individual wells (FIV Petaluma; conc 20 μM): 0 OD
blood serum concentrations [1]: 5 micrograms/mL
CSF concentrations ([1]; within 15 minutes of peripheral i.v. injection): 5 micrograms/mL
plasma viremia levels (M2 strain of FIV): below the detection limit of the assay
Relative CD4+/CD8+ T-Lymphocyte Counts ([2]; Aug. 2, 2007 pretreatment period): 1.1 and 1.3
Relative CD4+/CD8+ T-Lymphocyte Counts ([2]; Aug. 23, 2007 start of treatment period): 1.2
Relative CD4+/CD8+ T-Lymphocyte Counts ([2]; Aug. 30, 2007 treatment period): 1.5 and 1.3
Relative CD4+/CD8+ T-Lymphocyte Counts ([2]; Dec. 1, 2005 pretreatment period): 1.5 and 2.0
Relative CD4+/CD8+ T-Lymphocyte Counts ([2]; Feb. 1, 2006 pretreatment period): 0.82 and 1.1
Relative CD4+/CD8+ T-Lymphocyte Counts ([2]; Jan. 1, 2006 pretreatment period): 1.6 and 0.92
Relative CD4+/CD8+ T-Lymphocyte Counts ([2]; Mar. 1, 2006 pretreatment period): 0.84 and 1.2
Relative CD4+/CD8+ T-Lymphocyte Counts ([2]; May 8, 2008 (+33 wk) post treatment): 1.8 and 1.6
Relative CD4+/CD8+ T-Lymphocyte Counts ([2]; Nov. 1, 2005 pretreatment period): 0.86 and 0.85
Relative CD4+/CD8+ T-Lymphocyte Counts ([2]; Oct. 4, 2007 (+2 wk) post treatment): 1.9 and 1.4
Relative CD4+/CD8+ T-Lymphocyte Counts ([2]; Sep. 4, 2007 treatment period): 1.5 and 1.6
final CD4+/CD8+ ratios compared with controls ([2]; conclusion of the study, both tested felines): remained higher
local reactions or adverse clinical indicators [3]: No local reactions or adverse clinical indicators
competition with zinc for the F2 zinc finger binding domain (F2 zinc finger peptide; 1:1:1 F2:FX:Zn): thermodynamic competition of FX over zinc
coordination with F2 peptide (set of peaks at m/z 2452.82-2458.82 Da) (F2 zinc finger peptide; 1:1 with F2 peptide in PBS, 12 hours at 4° C.): unique to the F2 peptide+FX spectral complex
